In paper PMC6542280 (Bioorganic & medicinal chemistry letters, 2019):

Biological target: T1, Nutrient-deprivation autophagy factor-1 (NAF-1, miner1) (Homo sapiens, UniProt Q8N5K1)
T1 sequence (Q8N5K1 57-135 limits assumed): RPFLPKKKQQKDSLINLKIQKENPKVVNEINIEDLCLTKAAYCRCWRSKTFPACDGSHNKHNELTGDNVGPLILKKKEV
Test: scintillation proximity assay, [3H]rosiglitazone displacement
Assay type: binding

IC50: 29.8 µM
Substance: NL-1
